Results as given in US12545637B2, “Extrahepatic targeted cationic lipid compound with high efficiency and low toxicity and its composition” (BEIJING YOUCARE KECHUANG PHARMACEUTICAL TECHNOLOGY CO., LTD., priority 2023, dated 2026).

Tests used:
[1] = Detection of encapsulation efficiency, drug loading concentration and total RNA concentration (RiboGreen); type: physicochemical
How it was run: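 LNP samples were diluted in 1×TE to approximately […], then mixed with 1×TE and 0.1% Triton X-100 buffers. After 10 minutes at 37 °C, RiboGreen (1:200) was added and fluorescence read against an mRNA standard, giving encapsulation efficiency, drug loading concentration and total RNA concentration.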

female BALB/C mice [2] = test: In vivo imaging in mice of Fluc-mRNA LNP formulations (mRNA expression and duration)
How it was run: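 Female BALB/C mice (4-6 weeks, 17-19 g) received LNP carrying […] Fluc-mRNA intramuscularly. At 6h, 24 h, 48h and 7d, fluorescent imaging substrate was given intraperitoneally and after 5 minutes average radiance, as a measure of expressed protein, was imaged on an IVIS Spectrum system.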

female BALB/C mice [3] = test: Distribution of liposomes in mice (protein expression in liver, spleen, lung, heart and kidney); type: in vivo; details: mouse, in vivo
Description: The LNP formulation (prepared according to Example 4) containing […] Fluc-mRNA was injected intramuscularly into female BALB/C mice aged 4-6 weeks and weighed 17-19 g, and the mice were intraperitoneally injected with fluorescent imaging substrate at specific time points after administration (6h, 24 h, 48h and 7d), where the mice were allowed to free move for 5 minutes, and then the average radiation intensity (corresponding to fluorescence expression intensity) of the protein expression of the mRNA carried by the LNP in the mice was detected by the IVIS Spectrum small animal in vivo imaging system.
Current mRNA vaccines usually express proteins in muscle.

[4] = LNP formulation prepared from the cationic lipid

## CCCCCCCCC(CCCCCCCC)C(=O)OCCCCCCN(CCO)CCN(CCO)CCCCCCOC(=O)C(CCCCCCCC)CCCCCCCC [YK-402]
[1]; [4]
  Drug loading concentration: 37.67 µg/mL
  Encapsulation efficiency: 91.0%
  Total RNA concentration: 40.09 µg/mL
[1]; difference vs ALC-0315
  encapsulation efficiency higher than ALC-0315: 27.7%
[1]; difference vs HIMA (HHMA)
  encapsulation efficiency higher than HIMA: 30.8%
[1]; difference vs SM-102
  encapsulation efficiency higher than SM-102: 28.1%
[1]; difference vs YK-009
  encapsulation efficiency higher than YK-009: 27.6%
[1]; difference vs compound 21
  encapsulation efficiency higher than compound 21: 33.0%
[1]; difference vs compound 23
  encapsulation efficiency higher than compound 23: 34.8%
[1]; ratio vs ALC-0315
  drug loading concentration, times that of ALC-0315: 1.40
  total RNA concentration, times that of ALC-0315: 1.06
[1]; ratio vs HIMA (HHMA)
  drug loading concentration, times that of HIMA: 1.15
  total RNA concentration, times that of HIMA: 1.10
[1]; ratio vs SM-102
  drug loading concentration, times that of SM-102: 1.42
  total RNA concentration, times that of SM-102: 1.11
[1]; ratio vs YK-009
  drug loading concentration, times that of YK-009: 1.37
  total RNA concentration, times that of YK-009: 1.04
[1]; ratio vs compound 21
  drug loading concentration, times that of compound 21: 1.71
  total RNA concentration, times that of compound 21: 1.39
[1]; ratio vs compound 23
  drug loading concentration, times that of compound 23: 1.88
  total RNA concentration, times that of compound 23: 1.29
Female BALB/C mice [2]; 6 h
  average radiation intensity, times that of ALC-0315: 1.75
  average radiation intensity, times that of HHMA: 2.22
  average radiation intensity, times that of SM-102: 2.13
  average radiation intensity, times that of compound 21: 2.45
  average radiation intensity, times that of compound 23: 2.53
  expression amount in mice, times that of YK-415: 12.48
  expression amount in mice, times that of YK-417: 24.31
  mRNA expression in mice, times that of YK-411: 251.30
Female BALB/C mice [2]; 24 h
  average radiation intensity, times that of ALC-0315: 4.21
  average radiation intensity, times that of HHMA: 6.65
  average radiation intensity, times that of SM-102: 6.47
  average radiation intensity, times that of compound 21: 7.19
  average radiation intensity, times that of compound 23: 7.91
  expression amount in mice, times that of YK-415: 12.38
  expression amount in mice, times that of YK-417: 39.95
  mRNA expression in mice, times that of YK-411: 394.86
Female BALB/C mice [2]; 48 h
  average radiation intensity, times that of ALC-0315: 8.62
  average radiation intensity, times that of HHMA: 10.37
  average radiation intensity, times that of SM-102: 10.52
  average radiation intensity, times that of compound 21: 10.96
  average radiation intensity, times that of compound 23: 10.50
  expression amount in mice, times that of YK-415: 21.90
  expression amount in mice, times that of YK-417: 49.08
  mRNA expression in mice, times that of YK-411: 354.61
Female BALB/C mice [2]; 7 d
  average radiation intensity, times that of ALC-0315: 1.42
  average radiation intensity, times that of HHMA: 1.67
  average radiation intensity, times that of SM-102: 1.48
  average radiation intensity, times that of compound 21: 1.56
  average radiation intensity, times that of compound 23: 1.63
  expression amount in mice, times that of YK-415: 2.46
  expression amount in mice, times that of YK-417: 4.35
  mRNA expression in mice, times that of YK-411: 20.71
Female BALB/C mice [2]; Fluc-mRNA LNP intramuscular, 6 h after administration
  average radiation intensity, 6 h: 1470100
Female BALB/C mice [2]; Fluc-mRNA LNP intramuscular, 24 h after administration
  average radiation intensity, 24 h: 798408
Female BALB/C mice [2]; Fluc-mRNA LNP intramuscular, 48 h after administration
  average radiation intensity, 48 h: 345740
Female BALB/C mice [2]; Fluc-mRNA LNP intramuscular, 7 d after administration
  average radiation intensity, 7 d: 9940
Female BALB/C mice [3]; female, BALB/C, 6 h
  protein expression in the liver: reduced compared with SM-102
Female BALB/C mice [3]
  protein expression in the liver: had protein expression in the liver
  protein expression in the spleen: had protein expression in the spleen
